Source: patent publication US10369138B2, “Monobactam organic compounds for the treatment of bacterial infections” (Novartis AG, priority 2014, dated 2019)
Converted amounts (≈) assume the structure as drawn.

Key:
E. coli containing KPC-2 = assay: MIC by broth microdilution, E. coli containing KPC-2 (Ec KPC2 Iso); assay type: cell-based; conditions: Escherichia coli, read-out: Ec KPC2 Iso (MIC), E. coli containing KPC-2 (carbapenemase from Klebsiella pneumoniae)
Procedure, shortened: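 Host E. coli BW25113 pspB carrying multicopy pBAD18-kan plasmid with constitutive TEM-promoter KPC-2 expression (periplasmic signal sequence); broth microdilution per CLSI in cation-adjusted Mueller-Hinton broth, inoculum ~5×10^5 CFU/mL, compounds twofold serially diluted from DMSO masters (10% DMSO in dilution series added).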

E. coli strain 25922 = assay: MIC by broth microdilution, E. coli strain 25922; assay type: cell-based; conditions: Escherichia coli, 25922, E. coli strain 25922; read-out: Ec 25922 (MIC)
Procedure, shortened: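 CLSI broth microdilution in cation-adjusted Mueller-Hinton broth, inoculum about 5×10^5 CFU/mL, 10% DMSO from the diluted series, 20 h at 35-37° C. MIC is the lowest concentration preventing visible growth, read by eye and at 600 nm.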

Row | SMILES | MIC (E. coli containing KPC-2) | MIC (E. coli strain 25922)
1 | CC(C)(O/N=C(\C(=O)N[C@@H]1C(=O)N(S(=O)(=O)O)[C@@H]1CN1CCCCC1=O)c1csc(N)n1)C(=O)O [Example 14, 2-(((Z)-(1-(2-aminothiazol-4-yl)-2-oxo-2-(((3S,4R)-2-oxo-4-((2-oxopiperidin-1-yl)methyl)-1-sulfoazetidin-3-yl)amino)ethylidene)amino)oxy)-2-methylpropanoic acid] | 8 µg/mL (≈ 15 µM) | 16 µg/mL (≈ 30 µM)
2 | CC(NCCCN)c1cnn(C[C@@H]2[C@H](NC(=O)/C(=N\OC3(C(=O)O)CC3)c3csc(N)n3)C(=O)N2S(=O)(=O)O)n1 (stereo partly drawn) [Example 151, 1-(((Z)-(2-(((2R,3S)-2-((4-(1-((3-aminopropyl)amino)ethyl)-2H-1,2,3-triazol-2-yl)methyl)-4-oxo-1-sulfoazetidin-3-yl)amino)-1-(2-aminothiazol-4-yl)-2-oxoethylidene)amino)oxy)cyclopropanecarboxylic acid] | 0.5 µg/mL (≈ 0.832 µM) | 0.5 µg/mL (≈ 0.832 µM)
3 | Cc1nnnn1C[C@@H]1[C@H](NC(=O)/C(=N\OC(C)(C)C(=O)O)c2csc(N)n2)C(=O)N1S(=O)(=O)O [Example 8, 2-(((Z)-(1-(2-aminothiazol-4-yl)-2-(((2R,3S)-2-((5-methyl-1H-tetrazol-1-yl)methyl)-4-oxo-1-sulfoazetidin-3-yl)amino)-2-oxoethylidene)amino)oxy)-2-methylpropanoic acid] | 2 µg/mL (≈ 3.86 µM) | 2 µg/mL (≈ 3.86 µM)
4 | Nc1nc(/C(=N/OC2(C(=O)O)CC2)C(=O)N[C@@H]2C(=O)N(S(=O)(=O)O)[C@@H]2Cn2ncc(CNC3CCNCC3)n2)cs1 [Example 112, 1-(((Z)-(1-(2-aminothiazol-4-yl)-2-oxo-2-(((3S,4R)-2-oxo-4-((4-((piperidin-4-ylamino)methyl)-2H-1,2,3-triazol-2-yl)methyl)-1-sulfoazetidin-3-yl)amino)ethylidene)amino)oxy)cyclopropanecarboxylic acid] | 0.5 µg/mL (≈ 0.816 µM) | 0.5 µg/mL (≈ 0.816 µM)
5 | NCCNCc1cnn(C[C@@H]2[C@H](NC(=O)/C(=N\OC3(C(=O)O)CC3)c3csc(N)n3)C(=O)N2S(=O)(=O)O)n1 [Example 102, 1-(((Z)-(2-(((2R,3S)-2-((4-(((2-aminoethyl)amino)methyl)-2H-1,2,3-triazol-2-yl)methyl)-4-oxo-1-sulfoazetidin-3-yl)amino)-1-(2-aminothiazol-4-yl)-2-oxoethylidene)amino)oxy)cyclopropanecarboxylic acid] | 0.25 µg/mL (≈ 0.437 µM) | 0.25 µg/mL (≈ 0.437 µM)
6 | CNCc1cnn(C[C@@H]2[C@H](NC(=O)/C(=N\OC(C)(C)C(=O)O)c3csc(N)n3)C(=O)N2S(=O)(=O)O)n1 [Example 100, 2-(((Z)-(1-(2-aminothiazol-4-yl)-2-(((2R,3S)-2-((4-((methylamino)methyl)-2H-1,2,3-triazol-2-yl)methyl)-4-oxo-1-sulfoazetidin-3-yl)amino)-2-oxoethylidene)amino)oxy)-2-methylpropanoic acid] | 4 µg/mL (≈ 7.33 µM) | 1 µg/mL (≈ 1.83 µM)
7 | N=C(N)N(CCCN)Cc1cnn(C[C@@H]2[C@H](NC(=O)/C(=N\OC3(C(=O)O)CC3)c3csc(N)n3)C(=O)N2S(=O)(=O)O)n1 [Example 130, 1-(((Z)-(2-(((2R,3S)-2-((4-((1-(3-aminopropyl)guanidino)methyl)-2H-1,2,3-triazol-2-yl)methyl)-4-oxo-1-sulfoazetidin-3-yl)amino)-1-(2-aminothiazol-4-yl)-2-oxoethylidene)amino)oxy)cyclopropanecarboxylic acid] | 2 µg/mL (≈ 3.18 µM) | 1 µg/mL (≈ 1.59 µM)
8 | Cc1ncn(C[C@@H]2[C@H](NC(=O)/C(=N\OC(C)(C)C(=O)O)c3csc(N)n3)C(=O)N2S(=O)(=O)O)n1 [Example 60, 2-(((Z)-(1-(2-aminothiazol-4-yl)-2-(((2R,3S)-2-((3-methyl-1H-1,2,4-triazol-1-yl)methyl)-4-oxo-1-sulfoazetidin-3-yl)amino)-2-oxoethylidene)amino)oxy)-2-methylpropanoic acid] | 8 µg/mL (≈ 15.5 µM) | 8 µg/mL (≈ 15.5 µM)
9 | CC(C)(O/N=C(\C(=O)N[C@@H]1C(=O)N(S(=O)(=O)O)[C@@H]1CN1C[C@H](CN)OC1=O)c1csc(N)n1)C(=O)O [Example 58, 2-(((Z)-(2-(((2R,3S)-2-(((S)-5-(aminomethyl)-2-oxooxazolidin-3-yl)methyl)-4-oxo-1-sulfoazetidin-3-yl)amino)-1-(2-aminothiazol-4-yl)-2-oxoethylidene)amino)oxy)-2-methylpropanoic acid] | 1 µg/mL (≈ 1.82 µM) | 2 µg/mL (≈ 3.64 µM)
10 | Cc1nn(C[C@@H]2[C@H](NC(=O)/C(=N\OC3(C(=O)O)CC3)c3csc(N)n3)C(=O)N2S(=O)(=O)O)nc1CNC(=N)NCCCN [Example 144, 1-(((Z)-(2-(((2R,3S)-2-((4-((3-(3-aminopropyl)guanidino)methyl)-5-methyl-2H-1,2,3-triazol-2-yl)methyl)-4-oxo-1-sulfoazetidin-3-yl)amino)-1-(2-aminothiazol-4-yl)-2-oxoethylidene)amino)oxy)cyclopropanecarboxylic acid] | 1 µg/mL (≈ 1.56 µM) | 1 µg/mL (≈ 1.56 µM)
11 | CC(C)(O/N=C(\C(=O)N[C@@H]1C(=O)N(S(=O)(=O)O)[C@@H]1CN1CCOC1=O)c1csc(N)n1)C(=O)O [Example 2, 2-(((Z)-(1-(2-aminothiazol-4-yl)-2-oxo-2-(((3S,4R)-2-oxo-4-((2-oxooxazolidin-3-yl)methyl)-1-sulfoazetidin-3-yl)amino)ethylidene)amino)oxy)-2-methylpropanoic acid] | 0.5 µg/mL (≈ 0.961 µM) | 1 µg/mL (≈ 1.92 µM)
12 | CN(Cc1ccccc1)Cc1cnn(C[C@@H]2[C@H](NC(=O)/C(=N\OC(C)(C)C(=O)O)c3csc(N)n3)C(=O)N2S(=O)(=O)O)n1 [Example 83, 2-(((Z)-(1-(2-aminothiazol-4-yl)-2-(((2R,3S)-2-((4-((benzyl(methyl)amino)methyl)-2H-1,2,3-triazol-2-yl)methyl)-4-oxo-1-sulfoazetidin-3-yl)amino)-2-oxoethylidene)amino)oxy)-2-methylpropanoic acid] | 32 µg/mL (≈ 50.3 µM) | 32 µg/mL (≈ 50.3 µM)
13 | CC(C)(O/N=C(\C(=O)N[C@@H]1C(=O)N(S(=O)(=O)O)[C@@H]1Cn1ncnc1CN)c1csc(N)n1)C(=O)O [Example 12, 2-(((Z)-(2-(((2R,3S)-2-((5-(aminomethyl)-1H-1,2,4-triazol-1-yl)methyl)-4-oxo-1-sulfoazetidin-3-yl)amino)-1-(2-aminothiazol-4-yl)-2-oxoethylidene)amino)oxy)-2-methylpropanoic acid] | 4 µg/mL (≈ 7.53 µM) | 4 µg/mL (≈ 7.53 µM)
14 | CC(C)(O/N=C(\C(=O)N[C@@H]1C(=O)N(S(=O)(=O)O)[C@@H]1CN1CC[C@H](NC(=N)N)C1=O)c1csc(N)n1)C(=O)O [Example 80, 2-(((Z)-(1-(2-aminothiazol-4-yl)-2-(((2R,3S)-2-(((S)-3-guanidino-2-oxopyrrolidin-1-yl)methyl)-4-oxo-1-sulfoazetidin-3-yl)amino)-2-oxoethylidene)amino)oxy)-2-methylpropanoic acid] | 4 µg/mL (≈ 6.95 µM) | 4 µg/mL (≈ 6.95 µM)
15 | CN(CCCN)Cc1cnn(C[C@@H]2[C@H](NC(=O)/C(=N\OC3(C(=O)O)CC3)c3csc(N)n3)C(=O)N2S(=O)(=O)O)n1 [Example 115, 1-(((Z)-(2-(((2R,3S)-2-((4-(((3-aminopropyl)(methyl)amino)methyl)-2H-1,2,3-triazol-2-yl)methyl)-4-oxo-1-sulfoazetidin-3-yl)amino)-1-(2-aminothiazol-4-yl)-2-oxoethylidene)amino)oxy)cyclopropanecarboxylic acid] | 0.25 µg/mL (≈ 0.416 µM) | 0.125 µg/mL (≈ 0.208 µM)
16 | NCCCNCc1cnn(C[C@@H]2[C@H](NC(=O)/C(=N\OC3(C(=O)O)CC3)c3nsc(N)n3)C(=O)N2S(=O)(=O)O)n1 [Example 94, (((Z)-(1-(5-amino-1,2,4-thiadiazol-3-yl)-2-(((2R,3S)-2-((4-(((3-aminopropyl)amino)methyl)-2H-1,2,3-triazol-2-yl)methyl)-4-oxo-1-sulfoazetidin-3-yl)amino)-2-oxoethylidene)amino)oxy)cyclopropanecarboxylic acid] | 1 µg/mL (≈ 1.7 µM) | 0.5 µg/mL (≈ 0.851 µM)
17 | CC(C)(O/N=C(\C(=O)N[C@@H]1C(=O)N(S(=O)(=O)O)[C@@H]1CN1CC[C@H](N)C1=O)c1csc(N)n1)C(=O)O [Example 76, 2-(((Z)-(2-(((2R,3S)-2-(((S)-3-amino-2-oxopyrrolidin-1-yl)methyl)-4-oxo-1-sulfoazetidin-3-yl)amino)-1-(2-aminothiazol-4-yl)-2-oxoethylidene)amino)oxy)-2-methylpropanoic acid] | 0.5 µg/mL (≈ 0.937 µM) | 1 µg/mL (≈ 1.87 µM)
18 | N=C(NCc1cnn(C[C@@H]2[C@H](NC(=O)/C(=N\OC3(C(=O)O)CC3)c3csc(N)n3)C(=O)N2S(=O)(=O)O)n1)N[C@H]1CCNC1 [Example 141, 1-(((Z)-(1-(2-aminothiazol-4-yl)-2-oxo-2-(((3S,4R)-2-oxo-4-((4-((3-((S)-pyrrolidin-3-yl)guanidino)methyl)-2H-1,2,3-triazol-2-yl)methyl)-1-sulfoazetidin-3-yl)amino)ethylidene)amino)oxy)cyclopropanecarboxylic acid] | 0.5 µg/mL (≈ 0.78 µM) | 0.5 µg/mL (≈ 0.78 µM)
19 | CC(C)(O/N=C(\C(=O)N[C@@H]1C(=O)N(S(=O)(=O)O)[C@@H]1Cn1ncc(COS(=O)(=O)O)n1)c1csc(N)n1)C(=O)O [Example 38, 2-(((Z)-(1-(2-aminothiazol-4-yl)-2-oxo-2-(((3S,4R)-2-oxo-1-sulfo-4-((4-((sulfooxy)methyl)-2H-1,2,3-triazol-2-yl)methyl)azetidin-3-yl)amino)ethylidene)amino)oxy)-2-methylpropanoic acid] | 4 µg/mL (≈ 6.53 µM) | 8 µg/mL (≈ 13.1 µM)
20 | N=C(NC1CNC1)c1ccc(OC[C@H](O/N=C(\C(=O)N[C@@H]2C(=O)N(S(=O)(=O)O)[C@@H]2Cn2cncn2)c2csc(N)n2)C(=O)O)cc1 [Example 68, (S)-2-(((Z)-(2-(((2R,3S)-2-((1H-1,2,4-triazol-1-yl)methyl)-4-oxo-1-sulfoazetidin-3-yl)amino)-1-(2-aminothiazol-4-yl)-2-oxoethylidene)amino)oxy)-3-(4-(N-(azetidin-3-yl)carbamimidoyl)phenoxy)propanoic acid] | 0.25 µg/mL (≈ 0.369 µM) | 0.25 µg/mL (≈ 0.369 µM)
